Test results reported in publication PMC8119466, “A screen of FDA-approved drugs identifies inhibitors of protein tyrosine phosphatase 4A3 (PTP4A3 or PRL-3)” (Scientific Reports, 2021).
Where a name gives a salt, the structure may show the parent alone. Read-outs that look alike come from different tables or passages of the source.

Assays:
recombinant PRL-2 = target: T1, recombinant PRL-2 (Homo sapiens, UniProt Q12974); assay: In vitro phosphatase assay (DiFMUP hydrolysis), PRL-2; type: biochemical;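 note: PRL-2 activity read as DiFMUP hydrolysis after 20 min at room temperature with drug, enzyme first pre-reduced at 4 °C for 20 min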
T1 construct: 6xHis (N, cleaved yes); made in house; host or cells: E. coli One Shot BL21 Star
T1 sequence (Q12974 1-167): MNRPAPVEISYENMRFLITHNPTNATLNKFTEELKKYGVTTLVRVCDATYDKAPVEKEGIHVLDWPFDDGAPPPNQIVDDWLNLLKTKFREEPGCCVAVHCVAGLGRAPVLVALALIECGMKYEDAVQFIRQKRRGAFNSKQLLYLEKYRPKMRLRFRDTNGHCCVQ

HEK293T cells = assay: MTT viability assay; type: cell-based, human; settings: drug doses 1 to 100 µM, 16 h, normalized to 1% DMSO
Protocol: Cells were seeded into duplicate wells of a 96 well plate at a density of 2 × 10^4 cells per well and allowed to recover for 24 h. Cells were then treated with drug or DMSO at the indicated concentrations for 16 h. Following drug treatment, 10 μL of 5 mg/ml MTT (Sigma, M5655) was added to each well and cells were incubated for 4 h. Finally, media were removed, and the dye was solubilized in 100 μL of 0.1 M HCl in isopropanol. Absorbance was measured at 570 nm and 690 nm with final absorbance measurements as 570–690 nm.

recombinant PRL-1 = target: T2, recombinant PRL-1 (Homo sapiens, UniProt Q93096); assay: In vitro phosphatase assay (DiFMUP hydrolysis), PRL-1; type: biochemical
T2 construct: 6xHis (N, cleaved yes); made in house; host or cells: E. coli One Shot BL21 Star
T2 sequence (Q93096 1-173): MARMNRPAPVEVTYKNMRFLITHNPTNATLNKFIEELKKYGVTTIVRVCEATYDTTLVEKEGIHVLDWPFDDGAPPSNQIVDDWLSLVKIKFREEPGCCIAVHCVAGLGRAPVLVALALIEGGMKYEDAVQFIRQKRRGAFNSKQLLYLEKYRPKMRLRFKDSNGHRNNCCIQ

recombinant PRL-3 = target: T3, recombinant PRL-3 (Homo sapiens, UniProt O75365); assay: In vitro phosphatase assay (DiFMUP hydrolysis), PRL-3; type: biochemical
T3 construct: 6xHis (N, cleaved yes); made in house; host or cells: E. coli One Shot BL21 Star

[1] = FDA-approved drug screen, compared to DMSO
[2] = FDA-approved drug screen, activity compared to DMSO

T3 sequence (O75365 whole entry): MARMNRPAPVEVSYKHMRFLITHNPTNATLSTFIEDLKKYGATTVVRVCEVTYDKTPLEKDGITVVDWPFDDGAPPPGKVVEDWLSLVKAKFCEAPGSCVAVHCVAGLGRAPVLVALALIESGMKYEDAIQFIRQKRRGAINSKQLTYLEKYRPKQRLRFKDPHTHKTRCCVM

Compound | % Phosphatase Activity (compared to DMSO) PRL-2 (recombinant PRL-2; [1]) [%] | % Phosphatase Activity (compared to DMSO) PRL-1 (recombinant PRL-1; [1]) [%] | % Phosphatase Activity (compared to DMSO) PRL-3 (recombinant PRL-3; [1]) [%] | % Phosphatase Activity (compared to DMSO) PRL-2 (recombinant PRL-2; [2]) [%] | % Phosphatase Activity (compared to DMSO) PRL-1 (recombinant PRL-1; [2]) [%] | % Phosphatase Activity (compared to DMSO) PRL-3 (recombinant PRL-3; [2]) [%] | other results
Cc1cc(C(C#N)c2ccc(Cl)cc2)c(Cl)cc1NC(=O)c1cc(I)cc(I)c1O (stereo not shown) [Closantel, reference compound] | 17 | 16 | 40 |  |  |  | IC50 (recombinant PRL-2; 2.5 µM protein, DiFMUP at KM, read-out: Calculated IC50, PRL-2 phosphatase activity): 14 ± 5 µM; viability (MTT) (HEK293T cells): increased MTT absorbance; IC50 (recombinant PRL-1; 2.5 µM protein, DiFMUP at KM, read-out: Calculated IC50, PRL-1 phosphatase activity): 17 ± 3 µM; IC50 (recombinant PRL-3; 2.5 µM protein, DiFMUP at KM, read-out: Calculated IC50, PRL-3 phosphatase activity): 11 ± 0.5 µM
C=C1CC[C@H](O)C/C1=C/C=C1\CCC[C@]2(C)[C@@H]([C@H](C)CCCC(C)C)CC[C@@H]12 [Vitamin D3] |  |  |  | 95 | 85 | 63 | 
OCC(CO)N[C@H]1C[C@](O)(CO)[C@@H](O)[C@H](O)[C@H]1O [Voglibose] |  |  |  | 104 | 98 | 75 | 
CC[C@@H]1C(=O)N(C)c2cnc(Nc3ccc(C(=O)N[C@H]4CC[C@H](N5CCN(CC6CC6)CC5)CC4)cc3OC)nc2N1C(C)C [Volasertib (BI 6727)] |  |  |  | 112 | 97 | 87 | 
CCOC(=O)N[C@@H]1CC[C@@H]2[C@@H](C1)C[C@H]1C(=O)O[C@H](C)[C@H]1[C@H]2/C=C/c1ccc(-c2cccc(F)c2)cn1 [Vorapaxar] |  |  |  | 73 | 95 | 86 | 
O=C(CCCCCCC(=O)Nc1ccccc1)NO [Vorinostat (SAHA, MK0683)] |  |  |  | 89 | 98 | 92 | 
CCn1c(=O)c(-c2cc[nH]n2)cc2c(C)nc(N)nc21 [Voxtalisib (XL765, SAR245409)] |  |  |  | 5267 | 7254 | 4492 | 
Cc1cccc(C)c1N=C1NCCCS1 [Xylazine HCl] |  |  |  |  |  |  | % Phosphatase Activity (compared to DMSO) PRL-2 (recombinant PRL-2): 112%; % Phosphatase Activity (compared to DMSO) PRL-1 (recombinant PRL-1): 110%; % Phosphatase Activity (compared to DMSO) PRL-3 (recombinant PRL-3): 91%
Cc1cc(C(C)(C)C)cc(C)c1CC1=NCCN1 [Xylometazoline HCl] |  |  |  | 117 | 98 | 88 | 
O=C[C@H](O)[C@@H](O)[C@H](O)CO [Xylose] |  |  |  | 102 | 115 | 68 | 
COCC[n+]1c2c(n(Cc3cnccn3)c1C)C(=O)c1ccccc1C2=O.[Br-] [YM155 (Sepantronium Bromide)] |  |  |  | 13 | 11 | 5 | 
COc1cc(C(=O)NS(=O)(=O)c2ccccc2C)ccc1Cc1cn(C)c2ccc(NC(=O)OC3CCCC3)cc12 [Zafirlukast] |  |  |  | 66 | 68 | 48 | 
Nc1ccn([C@H]2CC[C@@H](CO)O2)c(=O)n1 [Zalcitabine] |  |  |  | 105 | 93 | 89 | 
CC(C(=O)O)c1ccc2c(c1)CC(=O)c1ccccc1S2 (stereo not shown) [Zaltoprofen] |  |  |  | 113 | 109 | 86 | 
CC(=O)N[C@H]1[C@H]([C@H](O)[C@H](O)CO)OC(C(=O)O)=C[C@@H]1N=C(N)N [Zanamivir] |  |  |  | 98 | 90 | 115 | 
COc1nc(C)cnc1NS(=O)(=O)c1cccnc1-c1ccc(-c2nnco2)cc1 [Zibotentan (ZD4054)] |  |  |  | 97 | 99 | 94 | 
Cc1cn([C@H]2C[C@H](N=[N+]=[N-])[C@@H](CO)O2)c(=O)[nH]c1=O [Zidovudine] |  |  |  | 112 | 100 | 85 | 
CC(c1cc2ccccc2s1)N(O)C(N)=O (stereo not shown) [Zileuton] |  |  |  | 86 | 96 | 87 | 
Cl.O=C1Cc2cc(CCN3CCN(c4nsc5ccccc45)CC3)c(Cl)cc2N1 [Ziprasidone HCl] |  |  |  | 91 | 91 | 80 | 
CN(C)CCc1c[nH]c2ccc(C[C@H]3COC(=O)N3)cc12 [Zolmitriptan] |  |  |  | 86 | 111 | 80 | 
Cc1ccc(-c2nc3ccc(C)cn3c2CC(=O)N(C)C)cc1 [Zolpidem] |  |  |  | 97 | 98 | 85 | 

Compound | % Phosphatase Activity (compared to DMSO) PRL-2 (recombinant PRL-2; [1]) [%] | % Phosphatase Activity (compared to DMSO) PRL-1 (recombinant PRL-1; [1]) [%] | % Phosphatase Activity (compared to DMSO) PRL-3 (recombinant PRL-3; [1]) [%] | % Phosphatase Activity (compared to DMSO) PRL-2 (recombinant PRL-2; [2]) [%] | % Phosphatase Activity (compared to DMSO) PRL-1 (recombinant PRL-1; [2]) [%] | % Phosphatase Activity (compared to DMSO) PRL-3 (recombinant PRL-3; [2]) [%] | other results
NS(=O)(=O)Cc1noc2ccccc12 [Zonisamide] |  |  |  | 89 | 104 | 78 | 
Cl.Cl.Cl.O[C@@H](COc1cccc2ncccc12)CN1CCN([C@@H]2c3ccccc3[C@@H]3[C@H](c4ccccc42)C3(F)F)CC1 [Zosuquidar (LY335979) 3HCl] |  |  |  | 98 | 107 | 91 | 
O[C@H]1[C@H](O)[C@@H](O)[C@H](O)[C@@H](O)[C@H]1O [i-Inositol] | 112 | 94 | 87 |  |  |  | 
NCCCCCC(=O)O [(6-)ε-Aminocaproic acid] | 115 | 110 | 75 |  |  |  | 
Atosiban Acetate | 80 | 86 | 90 |  |  |  | 
Bacitracin | 94 | 96 | 82 |  |  |  | 
Bivalirudin Trifluoroacetate | 81 | 86 | 88 |  |  |  | 
Capreomycin Sulfate | 95 | 95 | 113 |  |  |  | 
Carbazochrome sodium sulfonate (AC-17) | 68 | 74 | 59 |  |  |  | 
Eptifibatide Acetate | 82 | 88 | 91 |  |  |  | 
Escin | 73 | 72 | 95 |  |  |  | 
GHRP-2 | 102 | 98 | 100 |  |  |  | 
Heparin sodium | 72 | 86 | 78 |  |  |  | 
Isosorbide | 89 | 90 | 69 |  |  |  | 
Nafarelin Acetate | 91 | 91 | 91 |  |  |  | 
Oxytocin (Syntocinon) | 68 | 82 | 81 |  |  |  | 
S-Ruxolitinib (INCB018424) | 127 | 113 | 104 |  |  |  | 
Spiramycin |  |  |  | 90 | 86 | 68 | 
Teneligliptin hydrobromide |  |  |  | 100 | 95 | 90 | 
Tyloxapol |  |  |  | 83 | 89 | 90 | 
Vitamin E |  |  |  | 90 | 108 | 90 | 
